This is an account of results in publication PMC2199305 (Environmental Health Perspectives, 2007).

For experiment [1], the target named is T1, GST-ERR-γ –LBD (human ERR-γ) (Homo sapiens, UniProt P62508).
T1 construct: made in house; host or cells: Escherichia coli BL21α (vector pGEX6P-1)
T1 sequence (P62508 233-457 limits assumed): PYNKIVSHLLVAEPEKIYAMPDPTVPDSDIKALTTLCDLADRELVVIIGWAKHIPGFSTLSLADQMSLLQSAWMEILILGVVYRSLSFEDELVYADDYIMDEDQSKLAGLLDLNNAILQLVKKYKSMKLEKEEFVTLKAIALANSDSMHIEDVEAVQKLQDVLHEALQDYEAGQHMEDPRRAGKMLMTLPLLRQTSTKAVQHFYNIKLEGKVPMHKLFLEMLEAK
Put plainly: Competitive receptor binding assay using [3H]BPA as tracer. Particulars: for fold weaker binding affinity for ERR-γ than bisphenol E: ratio of IC50 vs bisphenol E. An excerpt:
ERR-γ –LBD was amplified from a human kidney cDNA library (Clontech Laboratories, Mountain View, CA, USA) by polymerase chain reaction (PCR) using gene-specific primers and cloned into pGEX6P-1 (Amersham Biosciences, Piscataway, NJ, USA). Glutathione S-transferase (GST)–fused receptor protein expressed in Escherichia coli BL21α was purified on an affinity column of glutathione-sepharose 4B (GE Healthcare BioSciences Co., Piscataway, NJ, USA) to obtain GST-ERR-γ –LBD.
The reaction mixtures were incubated for 2 hr at 4°C and free radioligand was removed with 1% DCC by filtration as described above. Radioactivity was determined on a liquid scintillation counter (TopCount NXT; PerkinElmer Life Sciences Tokyo, Japan). […] Each assay was performed in duplicate and repeated at least three times.

The target in another experiment is T2, human ERR-γ (Homo sapiens, UniProt P62508).
T2 sequence (P62508 1-458): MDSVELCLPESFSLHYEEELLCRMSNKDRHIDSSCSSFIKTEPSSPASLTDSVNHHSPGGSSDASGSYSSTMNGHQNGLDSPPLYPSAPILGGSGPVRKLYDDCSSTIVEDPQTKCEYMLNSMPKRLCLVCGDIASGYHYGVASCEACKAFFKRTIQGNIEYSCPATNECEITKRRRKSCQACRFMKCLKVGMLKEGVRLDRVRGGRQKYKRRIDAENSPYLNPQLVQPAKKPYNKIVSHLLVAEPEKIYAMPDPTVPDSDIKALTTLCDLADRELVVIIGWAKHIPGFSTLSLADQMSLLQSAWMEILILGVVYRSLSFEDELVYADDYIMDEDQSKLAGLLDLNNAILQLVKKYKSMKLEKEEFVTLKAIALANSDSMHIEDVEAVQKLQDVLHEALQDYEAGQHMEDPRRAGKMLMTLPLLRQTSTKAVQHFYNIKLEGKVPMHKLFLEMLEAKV
As to conditions: HeLa cells; for inhibition of the inverse agonist (deactivation) activity of 4-OHT: added along with 1.0 μM 4-OHT; for effect on constitutive basal activity of ERR-γ: compound alone.

The next experiment addresses T3, GST-ER-α –LBD (Homo sapiens, UniProt P03372).
T3 sequence (P03372 311-547 limits assumed): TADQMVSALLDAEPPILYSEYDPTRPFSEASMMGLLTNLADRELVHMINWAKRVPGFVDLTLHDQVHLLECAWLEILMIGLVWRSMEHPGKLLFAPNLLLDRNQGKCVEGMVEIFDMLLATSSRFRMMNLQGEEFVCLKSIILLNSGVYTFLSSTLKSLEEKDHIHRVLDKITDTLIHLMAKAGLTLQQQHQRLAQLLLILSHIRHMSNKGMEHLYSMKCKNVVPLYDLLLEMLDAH
Put plainly: Competitive binding assay using [3H]E2. As to conditions: for binding to ER-α (in words): [3H]E2 tracer; for ERR-γ receptor selectivity ER-α (IC50, nM)/ERR-γ (IC50, nM): ratio of IC50 values, ER-α over ERR-γ; for IC50: read-out: Binding affinity for ER-α (IC50).

The mark [2] stands for this setting: read-out: Binding affinity for ERR-γ (IC50).

SMILES strings stand for the structures. Where two headings read alike, the source gives them in different places.

For orientation: IC50 means the concentration needed to halve the response being measured. Turning to `CCc1ccc(O)cc1` [4-Ethylphenol, 4-ethylphenol], the half-maximal inhibitory concentration (IC50) in experiment [1] (setting [2]) stood at 289 ± 45.9 nM.
`CC(C)c1ccc(O)cc1` [4-Isopropylphenol, 4-isopropylphenol] returned a half-maximal inhibitory concentration (IC50) in experiment [1] of 71.1 ± 7.73 nM.
Regarding `CC/C(=C(\c1ccc(O)cc1)c1ccc(OCCN(C)C)cc1)c1ccccc1` [4-OHT, 4-hydroxytamoxifen, reference compound], at human ERR-γ (1.0 μM), the “deactivation of ERR-γ (inverse agonist activity)” value was “approximately 0.4 fold”.
Take `CCC(C)(C)c1ccc(O)cc1` [4-tert-Amylphenol, 4-tert-amylphenol]: the concentration for half-maximal inhibition (IC50) in experiment [1] (setting [2]) is 33.2 ± 2.85 nM. For the same compound, at GST-ER-α –LBD, the “binding to ER-α (in words)” value was “almost completely inactive” and the “ERR-γ receptor selectivity ER-α (IC50, nM)/ERR-γ (IC50, nM)” value (shortened to “ERR-γ receptor selectivity ER-α”) is on record as “Exclusively ERR-γ”.
On to `CC(C)(C)c1ccc(O)cc1` [4-tert-Butylphenol, 4-tert-butylphenol], for which the “binding to ER-α (in words)” value on GST-ER-α –LBD is “almost completely inactive”.
`CC(C)(c1ccccc1)c1ccc(O)cc1` [4-α-Cumylphenol, 2-(4-hydroxyphenyl)-2-phenylpropane]: at GST-ER-α –LBD, the 50% inhibitory concentration (IC50) was determined as 4770 nM.
Take `CC(C)(c1ccc(O)cc1)c1ccc(O)cc1` [BPA, 2,2-bis(4-hydroxyphenyl)propane]: in experiment [1], the IC50 was found to be 9.78 ± 0.87 nM and the “inhibition of the binding of [3H]BPA” value is reported as “almost completely inhibits”. On human ERR-γ, the “inhibition of the inverse agonist (deactivation) activity of 4-OHT” value (“inhibition of the inverse agonist” below) is “antagonizes or inhibits the deactivation activity of 4-OHT in a dose-dependent manner” and the “effect on constitutive basal activity of ERR-γ” value (shortened to “effect”) was “retained a high constitutive basal activity”.
For `Oc1ccc(C(c2ccc(O)cc2)(C(F)(F)F)C(F)(F)F)cc1` [Bisphenol AF, 2,2-bis(4-hydroxyphenyl)hexafluoropropane], the half-inhibitory concentration (IC50) in experiment [1] (setting [2]) amounted to 358 ± 30.5 nM. At human ERR-γ, the “inhibition of the inverse agonist” value is “inhibited the inverse agonist activity of 4-OHT” and the “effect” value is recorded as “retain a high constitutive basal activity”.
Regarding `CC(c1ccccc1)(c1ccc(O)cc1)c1ccc(O)cc1` [Bisphenol AP, 4,4′-(1-phenylethylidene)bisphenol], the “fold weaker binding affinity for ERR-γ than bisphenol E” value in experiment [1] is “approximately 15 fold”. Also, the IC50 turned out to be 123 ± 15.1 nM in experiment [1] (setting [2]) and 361 ± 22.6 nM at GST-ER-α –LBD.
With `CCC(C)(c1ccc(O)cc1)c1ccc(O)cc1` [Bisphenol B, 2,2-bis(4-hydroxyphenyl)butane], the half-maximal inhibitory concentration (IC50) is 26.3 ± 2.65 nM in experiment [1] (setting [2]) and 246 ± 29.7 nM at GST-ER-α –LBD. Also, at GST-ER-α –LBD, the “ERR-γ receptor selectivity ER-α” value is given as “about 9.5”.
With `CC(c1ccc(O)cc1)c1ccc(O)cc1` [Bisphenol E, 2,2-bis(4-hydroxyphenyl)ethane], in experiment [1] (setting [2]), the concentration for half-maximal inhibition (IC50) turned out to be 8.14 ± 0.83 nM. Moreover, on GST-ER-α –LBD, the “binding to ER-α (in words)” value is “almost completely inactive” and the “ERR-γ receptor selectivity ER-α” value is on record as “Exclusively ERR-γ”. On human ERR-γ, the “inhibition of the inverse agonist” value is on record as “inhibited the inverse agonist activity of 4-OHT” and the “effect” value is listed as “retain a high constitutive basal activity”.
Take `Oc1ccc(Cc2ccc(O)cc2)cc1` [Bisphenol F, bis(4-hydroxyphenyl)methane]: the “fold weaker binding affinity for ERR-γ than bisphenol E” value in experiment [1] was “approximately 16 fold”. Besides, the 50% inhibitory concentration (IC50) in experiment [1] (setting [2]) was 131 ± 17.9 nM. At GST-ER-α –LBD, the “binding to ER-α (in words)” value is “almost completely inactive” and the “ERR-γ receptor selectivity ER-α” value is reported as “Exclusively ERR-γ”.
